pIC50: −log10 of the molar value.
Target: T1, MET kinase (Homo sapiens, UniProt P08581)
T1 construct: Sf9 insect cell culture expressing the kinase domain of human Met; 6x Histidine tag (TEV-cleavable) (cleaved yes); made in house; host or cells: Sf9 insect cells
Experiment: Met Bioassay (luminescence-based enzyme assay, Kinase-Glo)
Type: biochemical
Settings: 10 μM ATP
From the text: In addition to the c-Abl PK/LDH coupled assay (above), homogeneous luminescence-based inhibitor screening assays were developed for c-Abl, MET, AurA, and PDK1 kinases (among others). Each of these assays made use of an ATP depletion assay (Kinase-Glo™, Promega Corporation, Madison, Wis.) to quantitate kinase activity. The Kinase-Glo™ format uses a thermostable luciferase to generate luminescent signal from ATP remaining in solution following the kinase reaction. The luminescent signal is inversely correlated with the amount of kinase activity.
Materials: Poly Glu-Tyr (4:1) substrate (Sigma Cat# P-0275), ATP (Sigma Cat#A-3377, FW=551), HEPES buffer, pH 7.5, Bovine serum albumin (BSA) (Roche 92423420), MgCl2, Staurosporine (Streptomyces sp. Sigma Cat#85660-1MG), white Costar 384-well flat-bottom plate (VWR Cat#29444-088). MET kinase (see below), Kinase-Glo™ (Promega Cat#V6712).
Stock Solutions: 10 mg/ml poly Glu-Tyr in water, stored at −20° C.; 100 mM HEPES buffer, pH 7.5 (5 ml 1M stock+45 ml miliQH2O); 10 mM ATP (5.51 mg/ml in dH2O) stored at −20° C. (diluted 50 μl into total of 10 ml miliQH2O daily=50 μM ATP working stock); 1% BSA (1 g BSA in 100 ml 0.1M HEPES, pH 7.5, stored at −20° C.), 100 mM MgCl2; 200 μM Staurosporine, 2× Kinase-Glo™ reagent (made fresh or stored at −20° C.).
Standard Assay Setup for 384-well format (20 μl kinase reaction, 40 μl detection reaction): 10 mM MgCl2; 0.3 mg/ml poly Glu-Tyr; 0.1% BSA; 1 μl test compound (in DMSO); 0.4 μg/ml MET kinase; 10 μM ATP; 100 mM HEPES buffer. Positive controls contained DMSO with no test compound. Negative controls contained 10 μM staurosporine. The kinase reactions were initiated at time t=0 by the addition of ATP. Kinase reactions were incubated at 21° C. for 60 min, then 20 μl of Kinase-Glo™ reagent were added to each well to quench the kinase reaction and initiate the luminescence reaction. After a 20 min incubation at 21° C., the luminescence was detected in a plate-reading luminometer.
The cell pellets produced from half of a 12 L Sf9 insect cell culture expressing the kinase domain of human Met were resuspended in a buffer containing 50 mM Tris-HCl pH 7.7 and 250 mM NaCl, in a volume of approximately 40 ml per 1 L of original culture. One tablet of Roche Complete, EDTA-free protease inhibitor cocktail (Cat# 1873580) was added per 1 L of original culture. The suspension was stirred for 1 hour at 4° C. Debris was removed by centrifugation for 30 minutes at 39,800×g at 4° C. The supernatant was decanted into a 500 ml beaker and 10 ml of 50% slurry of Qiagen Ni-NTA Agarose (Cat# 30250) that had been pre-equilibrated in 50 mM Tris-HCl pH 7.8, 50 mM NaCl, 10% Glycerol, 10 mM Imidazole, and 10 mM Methionine, were added and stirred for 30 minutes at 4° C. The sample was then poured into a drip column at 4° C. and washed with 10 column volumes of 50 mM Tris-HCl pH 7.8, 500 mM NaCl, 10% Glycerol, 10 mM Imidazole, and 10 mM Methionine. The protein was eluted using a step gradient with two column volumes each of the same buffer containing 50 mM, 200 mM, and 500 mM Imidazole, sequentially. The 6× Histidine tag was cleaved overnight using 40 units of TEV protease (Invitrogen Cat#10127017) per 1 mg of protein while dialyzing in 50 mM Tris-HCl pH 7.8, 500 mM NaCl, 10% Glycerol, 10 mM Imidazole, and 10 mM Methionine at 4° C. The 6× Histidine tag was removed by passing the sample over a Pharmacia 5 ml IMAC column (Cat# 17-0409-01) charged with Nickel and equilibrated in 50 mM Tris-HCl pH 7.8, 500 mM NaCl, 10% Glycerol, 10 mM Imidazole, and 10 mM Methionine. The cleaved protein bound to the Nickel column at a low affinity and was eluted with a step gradient. The step gradient was run with 15% and then 80% of the B-side (A-side=50 mM Tris-HCl pH 7.8, 500 mM NaCl, 10% Glycerol, 10 mM Imidazole, and 10 mM Methionine; B-side=50 mM Tris-HCl pH 7.8, 500 mM NaCl, 10% Glycerol, 500 mM Imidazole, and 10 mM Methionine) for 4 column volumes each. […]

T1 sequence (P08581 1078-1345 limits assumed): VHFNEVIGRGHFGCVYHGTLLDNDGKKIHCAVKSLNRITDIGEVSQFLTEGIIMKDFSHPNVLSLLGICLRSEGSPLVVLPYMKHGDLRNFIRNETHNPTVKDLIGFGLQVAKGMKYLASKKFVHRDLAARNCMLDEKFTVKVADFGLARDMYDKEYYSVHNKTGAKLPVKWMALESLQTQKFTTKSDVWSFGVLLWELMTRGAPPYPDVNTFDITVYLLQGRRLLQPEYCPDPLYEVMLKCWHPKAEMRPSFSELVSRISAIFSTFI

SMILES | pIC50
COc1ccccc1-c1c[nH]c2ncc(-c3ccc(CN(C)C)cc3)cc12 [AE8] | > 6.00
O=C(c1cncc(-c2cnc3[nH]cc(-c4ccc5cc[nH]c5c4)c3c2)c1)N1CCOCC1 [AE14] | > 6.00
c1cc2cc(-c3c[nH]c4ncc(-c5ccc6[nH]cnc6c5)cc34)ccc2[nH]1 [AE22] | 5.30 to 6.00
COc1ccccc1-c1c[nH]c2ncc(-c3ccc(O)c(CN4CCCN(C)CC4)c3)cc12 [AE41] | 5.30 to 6.00
COc1ccccc1-c1c[nH]c2ncc(-c3cccc(C(=N)N4CCCCC4)c3)cc12 [AE42] | > 6.00

Next, values leading:

pIC50 | SMILES
> 6.00 | Oc1cccc(-c2cnc3[nH]cc(-c4ccc(O)c(F)c4)c3c2)c1 [AE48]
5.30 to 6.00 | COc1cc(-c2cnc3[nH]cc(-c4ccc(O)cc4)c3c2)ccc1O [AE58]
5.30 to 6.00 | COc1cc(-c2cnc3[nH]cc(-c4ccccc4OC)c3c2)ccc1OCCN1CCCC1 [AE65]

— patent publication US7709645B2, “Pyrrolo-pyridine kinase modulators” (SGX Pharmaceuticals, Inc., priority 2004, dated 2010)
